Test results from ChEMBL document CHEMBL4184250, “Structure-activity studies of a macrocyclic peptide inhibitor of histone lysine demethylase 4A” (Bioorg Med Chem, 2018).
Calls of active or inactive are those of the source. The calls are words filed in the database; no cut-off is given here. Where a SMILES comes first, the peptide text is derived from it. Bridges are numbered along the chain shown (N, C = ends).

Legend:
[1] = Drug uptake in human MCF7 cells assessed as cell area stained at 10 uM after 3 hrs by Hoechst 33342 staining based confocal microscopic analysis; type: ADME; settings: mcf7, 3 h
[2] = target: T1, Lysine-specific demethylase 4C (Homo sapiens, UniProt Q9H3R0); experiment: Inhibition of KDM4C (unknown origin) expressed in Escherichia coli using biotinylated peptide as substrate pretreated for 15 mins followed by substrate addition by Alphascreen assay
T1 sequence (Q9H3R0 whole entry): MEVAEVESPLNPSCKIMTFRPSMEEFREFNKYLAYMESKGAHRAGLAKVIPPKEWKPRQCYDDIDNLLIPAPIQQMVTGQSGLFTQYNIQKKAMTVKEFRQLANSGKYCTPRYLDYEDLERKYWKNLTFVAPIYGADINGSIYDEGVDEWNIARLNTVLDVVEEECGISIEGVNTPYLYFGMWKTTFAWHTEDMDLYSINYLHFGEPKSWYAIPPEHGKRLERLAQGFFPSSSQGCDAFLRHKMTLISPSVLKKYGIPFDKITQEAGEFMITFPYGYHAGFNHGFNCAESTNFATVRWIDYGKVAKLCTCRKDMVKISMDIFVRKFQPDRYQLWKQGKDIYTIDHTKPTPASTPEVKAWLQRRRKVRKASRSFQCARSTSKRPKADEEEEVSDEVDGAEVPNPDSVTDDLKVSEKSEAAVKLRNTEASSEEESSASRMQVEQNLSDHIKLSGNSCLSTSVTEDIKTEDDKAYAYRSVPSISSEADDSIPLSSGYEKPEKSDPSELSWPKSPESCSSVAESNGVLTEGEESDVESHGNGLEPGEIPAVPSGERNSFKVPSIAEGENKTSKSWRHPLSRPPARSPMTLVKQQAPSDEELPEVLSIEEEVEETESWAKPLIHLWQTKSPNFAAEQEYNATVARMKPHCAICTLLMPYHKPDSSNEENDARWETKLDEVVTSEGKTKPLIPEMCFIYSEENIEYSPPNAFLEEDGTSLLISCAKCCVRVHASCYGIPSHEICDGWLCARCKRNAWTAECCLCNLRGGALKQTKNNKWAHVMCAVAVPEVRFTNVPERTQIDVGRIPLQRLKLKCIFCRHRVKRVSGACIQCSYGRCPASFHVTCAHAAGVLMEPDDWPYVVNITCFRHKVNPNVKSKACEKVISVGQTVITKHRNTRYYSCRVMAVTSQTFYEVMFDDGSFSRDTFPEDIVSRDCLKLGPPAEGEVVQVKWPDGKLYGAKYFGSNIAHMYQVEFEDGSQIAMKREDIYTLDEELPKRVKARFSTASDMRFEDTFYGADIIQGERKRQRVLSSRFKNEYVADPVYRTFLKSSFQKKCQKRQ

[3] = target: T2, Lysine-specific demethylase 4A (Homo sapiens, UniProt O75164); experiment: Inhibition of KDM4A (unknown origin) expressed in Escherichia coli using biotinylated peptide as substrate pretreated for 15 mins followed by substrate addition by Alphascreen assay
T2 sequence (O75164 whole entry): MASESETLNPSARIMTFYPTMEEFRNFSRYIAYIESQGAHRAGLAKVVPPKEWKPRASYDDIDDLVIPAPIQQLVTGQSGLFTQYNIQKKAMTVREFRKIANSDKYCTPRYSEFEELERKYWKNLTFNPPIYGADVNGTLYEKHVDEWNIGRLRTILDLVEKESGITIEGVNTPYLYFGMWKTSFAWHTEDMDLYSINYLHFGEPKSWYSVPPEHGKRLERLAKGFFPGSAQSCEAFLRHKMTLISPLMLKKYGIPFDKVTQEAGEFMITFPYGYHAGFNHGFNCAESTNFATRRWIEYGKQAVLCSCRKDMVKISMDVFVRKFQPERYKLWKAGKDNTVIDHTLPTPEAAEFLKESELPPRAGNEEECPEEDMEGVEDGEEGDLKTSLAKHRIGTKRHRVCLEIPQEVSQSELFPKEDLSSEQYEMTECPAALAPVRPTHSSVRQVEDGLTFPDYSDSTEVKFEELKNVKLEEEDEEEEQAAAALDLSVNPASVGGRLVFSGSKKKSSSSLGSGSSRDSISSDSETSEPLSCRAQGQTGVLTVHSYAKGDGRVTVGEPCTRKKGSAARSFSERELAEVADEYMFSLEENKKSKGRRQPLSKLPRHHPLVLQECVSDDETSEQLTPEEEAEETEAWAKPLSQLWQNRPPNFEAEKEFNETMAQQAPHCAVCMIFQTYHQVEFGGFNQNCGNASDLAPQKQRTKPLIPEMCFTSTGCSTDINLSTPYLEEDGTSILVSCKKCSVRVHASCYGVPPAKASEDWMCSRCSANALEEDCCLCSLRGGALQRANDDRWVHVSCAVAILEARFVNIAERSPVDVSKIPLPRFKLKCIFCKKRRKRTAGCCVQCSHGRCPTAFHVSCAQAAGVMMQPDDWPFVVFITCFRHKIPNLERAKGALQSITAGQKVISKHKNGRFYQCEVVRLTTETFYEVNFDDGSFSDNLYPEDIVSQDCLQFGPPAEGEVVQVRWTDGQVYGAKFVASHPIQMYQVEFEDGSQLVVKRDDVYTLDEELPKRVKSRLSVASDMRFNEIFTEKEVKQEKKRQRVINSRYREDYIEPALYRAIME

[4] = target: T2, Lysine-specific demethylase 4A; experiment: Stabilization of FLAG-tagged KDM4A (1 to 1064 residues) (unknown origin) expressed in human U2OS cells measured after 3 hrs by CETSA; type: cell-based
[5] = target: T2, Lysine-specific demethylase 4A; experiment: Binding affinity to N-terminal His6-tagged KDM4A (1 to 359 residues) (unknown origin) expressed in Escherichia coli BL21(DE3) Rosetta by bio-layer interferometric method; settings: read-out: Kd(app)
[6] = target: T2, Lysine-specific demethylase 4A; experiment: Inhibition of full length FLAG-tagged KDM4A (unknown origin) expressed in human HeLa cells assessed as increase in H3K9me3 levels after 24 hrs by DAPI staining based immunofluorescence assay; type: cell-based
HeLa [7] = experiment: Cytotoxicity against human HeLa cells expressing FLAG-tagged KDM4A assessed as condensed nucleus at 50 uM after 24 hrs by DAPI staining based immunofluorescence assay; type: cell-based
HeLa [8] = experiment: Cytotoxicity against human HeLa cells expressing FLAG-tagged KDM4A assessed as reduction in cell numbers at >5 uM after 24 hrs by DAPI staining based immunofluorescence assay
[9] = target: T2, Lysine-specific demethylase 4A; experiment: (§1) Binding affinity to biotinylated-KDM4A (unknown origin) at 300 nM by bio-layer interferometric method; settings: read-out: Kd(app)
[10] = target: T3, Lysine-specific demethylase 4A (Homo sapiens) (UniProt O75164); experiment: as §1
T3 sequence (whole entry): T2 sequence (O75164 whole entry)

[11] = target: T3, Lysine-specific demethylase 4A (Homo sapiens); experiment: Inhibition of full length FLAG-tagged KDM4A (unknown origin) expressed in human HeLa cells assessed as increase in H3K9me3 levels at >20 uM after 24 hrs by DAPI staining based immunofluorescence assay; type: cell-based
[12] = Drug localization in lysosomes of human MCF7 cells at 10 uM after 3 hrs by Lysotracker red DND-99 staining based confocal microscopic analysis; type: ADME, subcellular, Lysosome; settings: mcf7, 3 h

With `CC(C)[C@@H]1NC(=O)[C@@H](Cc2ccc(O)cc2)NC(=O)CSC[C@@H](C(N)=O)NC(=O)[C@H](Cc2c[nH]c3ccccc23)NC(=O)[C@H](Cc2ccc(O)cc2)NC(=O)[C@H](Cc2c[nH]c3ccccc23)NC(=O)[C@H](CCCNC(=N)N)NC(=O)[C@H](Cc2c[nH]c3ccccc23)NC(=O)CNC(=O)[C@H](CO)NC(=O)[C@H](CCCNC(=N)N)NC(=O)[C@H]([C@@H](C)O)NC(=O)[C@H](CC(N)=O)NC(=O)[C@H](Cc2ccc(O)cc2)NC1=O` as the compound, how does the Drug uptake [1] read?
The Drug uptake was 17.4%.

What about the IC50 [2] of the same compound?
The IC50 was 46 nM.

What about the IC50 [3] of the same compound?
Its IC50 is 41 nM.

What about the EC50 [4] of the same compound?
Its EC50 is greater than 100000 nM.

And the Kd [5]?
Its Kd is 29.8 nM.

With `CC[C@H](C)[C@@H]1NC(=O)CNC(=O)[C@H](CO)NC(=O)[C@H](CCCNC(=N)N)NC(=O)[C@H](CCCNC(=N)N)NC(=O)[C@H](Cc2ccccc2)NC(=O)[C@H](CCCNC(=N)N)NC(=O)[C@H]([C@@H](C)O)NC(=O)[C@@H](Cc2ccc(O)cc2)NC(=O)CSC[C@@H](C(N)=O)NC(=O)[C@H](Cc2ccc(O)cc2)NC(=O)[C@H](Cc2ccc(O)cc2)NC(=O)[C@H](Cc2ccccc2)NC(=O)[C@H](C(C)C)NC1=O` as the compound, how does the Drug uptake [1] read?
The Drug uptake was 13.4%.

What about the EC50 [6] of the same compound?
Its EC50 is greater than 50000 nM.

What about the Activity (HeLa [7]) of the same compound?
Its Activity is “Toxic”.

What about the Activity (HeLa [8]) of the same compound?
Its Activity is “Toxic”.

What about the Kd [9] of the same compound?
The Kd was 2.6 nM.

Which Drug uptake [1] does the source give for `CC[C@H](C)[C@@H]1NC(=O)[C@H](CCCNC(=N)N)NC(=O)[C@@H]2CCCN2C(=O)[C@H](Cc2ccc(O)cc2)NC(=O)CSC[C@@H](C(N)=O)N(C)C(=O)[C@H](Cc2c[nH]c3ccccc23)NC(=O)[C@H](CCCNC(=N)N)NC(=O)[C@H]([C@@H](C)CC)NC(=O)[C@@H](C)NC(=O)[C@H](CO)NC(=O)[C@H](CCCNC(=N)N)NC(=O)[C@H](CCCNC(=N)N)NC1=O` here?
Its Drug uptake is 1.2%.

And the IC50 [2]?
The IC50 was 65 nM.

What about the IC50 [3] of the same compound?
Its IC50 is 269 nM.

What about the EC50 [6] of the same compound?
The EC50 was greater than 50000 nM.

And the “Kd(app)” value [10]?
Its value is “inactive”.

With `CC[C@H](C)[C@@H]1NC(=O)[C@H](CCCNC(=N)N)NC(=O)[C@H]([C@@H](C)CC)N(C)C(=O)[C@H](Cc2ccc(O)cc2)NC(=O)CSC[C@@H](C(N)=O)N(C)C(=O)[C@H](Cc2c[nH]c3ccccc23)NC(=O)[C@H](CC(C)C)NC(=O)[C@H](Cc2c[nH]c3ccccc23)NC(=O)[C@@H](C)NC(=O)[C@H](CO)NC(=O)[C@H](CCCNC(=N)N)NC(=O)[C@H](CCCNC(=N)N)NC1=O` as the compound, how does the Drug uptake [1] read?
Its Drug uptake is 7.4%.

And the IC50 [2]?
Its IC50 is 27 nM.

What about the IC50 [3] of the same compound?
The IC50 was 17 nM.

And the inhibition [11]?
Its inhibition is “Active”.

What about the EC50 [6] of the same compound?
The EC50 was greater than 50000 nM.

What about the Kd [9] of the same compound?
Its Kd is 23 nM.

Which inhibition [11] does the source give for `CC[C@H](C)[C@@H]1NC(=O)CNC(=O)[C@H](CO)NC(=O)[C@H](CCCNC(=N)N)NC(=O)[C@H](CCCNC(=N)N)NC(=O)[C@H](Cc2ccccc2)NC(=O)[C@H](CCCNC(=N)N)NC(=O)[C@H]([C@H](C)O)NC(=O)[C@@H](Cc2ccc(O)cc2)NC(=O)CSC[C@@H](C(N)=O)NC(=O)[C@H](Cc2ccc(O)cc2)NC(=O)[C@H](Cc2ccc(O)cc2)NC(=O)[C@H](Cc2ccccc2)NC(=O)[C@H](C(C)C)NC1=O` here?
The inhibition was “Active”.

With `CC[C@H](C)[C@@H]1NC(=O)[C@H](CCCNC(=N)N)NC(=O)[C@H]([C@@H](C)CC)NC(=O)[C@H](Cc2ccc(O)cc2)NC(=O)CSC[C@@H](C(N)=O)NC(=O)[C@H](Cc2c[nH]c3ccccc23)NC(=O)[C@H](CC(C)C)NC(=O)[C@H](Cc2c[nH]c3ccccc23)NC(=O)CNC(=O)[C@H](CO)NC(=O)[C@H](CCCNC(=N)N)NC(=O)[C@H](CCCNC(=N)N)NC1=O` ({CH2CO}-YIRIRRSGWLWC-NH2; thioether N-12) as the compound, how does the Drug uptake [1] read?
Its Drug uptake is 65.3%.

And the IC50 [2]?
The IC50 was 23 nM.

What about the IC50 [3] of the same compound?
The IC50 was 23 nM.

And the Drug uptake [12]?
Its Drug uptake is “Active”.

What about the EC50 [6] of the same compound?
Its EC50 is greater than 50000 nM.

And the Kd [9]?
The Kd was 42 nM.

Which Drug uptake [1] does the source give for `CC[C@H](C)[C@@H]1NC(=O)CNC(=O)[C@H](CO)NC(=O)[C@H](CCCNC(=N)N)NC(=O)[C@H](CCCNC(=N)N)NC(=O)[C@H]([C@@H](C)CC)NC(=O)[C@H](CCCNC(=N)N)NC(=O)[C@@H]2CCCN2C(=O)[C@H](Cc2ccc(O)cc2)NC(=O)CSC[C@@H](C(N)=O)NC(=O)[C@H](Cc2c[nH]c3ccccc23)NC(=O)[C@H](CCCNC(=N)N)NC1=O` ({CH2CO}-YPRIRRSGIRWC-NH2; thioether N-12) here?
Its Drug uptake is 76.8%.

What about the IC50 [2] of the same compound?
The IC50 was 466 nM.

What about the IC50 [3] of the same compound?
Its IC50 is 615 nM.

What about the Drug uptake [12] of the same compound?
The Drug uptake was “Active”.

And the EC50 [6]?
The EC50 was greater than 50000 nM.

What about the Kd [9] of the same compound?
Its Kd is greater than 300 nM.
